Data as given in patent US20240058450A1, “BCL-XL Inhibitory Compounds Having Low Cell Permeability and Antibody Drug Conjugates Including the Same” (AbbVie Inc., priority 2014, published 2024).
Like-named read-outs stand apart in the source and are kept apart here.

Legend:
[1] = test system: Molt-4 human acute lymphoblastic leukemia cells; test: Molt-4 cell viability assay (CellTiter-Glo, 48 hours, 10% HS); format: cell-based; details: Homo sapiens, MOLT-4, 48 h, non-permeabilized cells
How it was run: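 Cells were seeded at 12,500 per well in medium with 10% human serum and exposed to a 3-fold compound dilution series from 10 μM to 0.0005 μM. After 48 h, viable cells were quantified by CellTiter-Glo luminescence. Each concentration was run in duplicate on at least 3 occasions.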

Bcl-xL = Bcl-xL (Homo sapiens, UniProt Q07817); test: Time Resolved-Fluorescence Resonance Energy Transfer (TR-FRET) binding assay, competition with probe F-Bak
Bcl-xL, sequence (Q07817 whole entry): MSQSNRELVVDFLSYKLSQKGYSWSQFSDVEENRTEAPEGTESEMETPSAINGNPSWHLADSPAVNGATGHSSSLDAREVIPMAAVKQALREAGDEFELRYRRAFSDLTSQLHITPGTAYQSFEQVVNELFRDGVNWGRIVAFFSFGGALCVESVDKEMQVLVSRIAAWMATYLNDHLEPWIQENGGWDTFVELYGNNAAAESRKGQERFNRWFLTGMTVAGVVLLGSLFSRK
How it was run: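 TR-FRET binding assay run at room temperature for 2 h after mixing compound with Bcl-xL protein, F-Bak probe and Tb-labelled antibody. Test compounds diluted from a 2× 50 μM stock. Ki values derived via Wang's equation from 520/495 nm emission under 340 nm excitation, in the absence of serum or with 1% HS.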

[2] = test system: permeabilized Bcl-xL dependent Molt-4 cells; test: Cytochrome C release in selectively (digitonin) permeabilized Molt-4 cells; format: cell-based, human; details: Homo sapiens, MOLT-4, 4 h, 4 h treatment, read-out: Molt-4 Permeabilized Cyt C Release
From the text: The permeabilization of the mitochondrial outer membrane to release proteins from the intermembrane space into the cytosol is a pivotal event in the process of apoptosis. Specifically, the release of cytochrome C triggers the formation of the apoptosome which, in turn, results in caspase activation and other events that will commit the cell to undergo programmed cell death (Goldstein el al., 2005, Cell Death and Differentiation 12:453). The process of mitochondrial outer membrane permeabilization (MOMP) is controlled by the Bcl-2 family members. It is promoted by the multidomain pro-apoptotic proteins Bax and Bak which, upon activation, oligomerize on the outer mitochondrial membrane and form pores to ultimately release cytochrome C. This action is antagonized by the antiapoptotic members, including Bcl-2 and Bcl-xL. Compounds that are capable of inhibiting Bcl-2 or Bcl-xL, for example, in cells that depend upon these proteins for survival, can cause activation of Bax and or Bak, MOMP, release of cytochrome C and the mentioned downstream steps in the apoptotic process. This process of cytochrome C release can be measured in cells via Western blot of both mitochrondrial and cytosolic fractions, and can be used a proxy measurement of apoptosis in cells.
As a means of detecting the ability of a Bcl-xL inhibitor with low cell-permeability to cause release of cytochrome C, the cells can be treated with an agent that causes selective pore formation in the plasma membrane, but not the mitochondrial membrane. Specifically, the cholesterol/phospholipid ratio is much higher in the plasma membrane than the mitochondrial membrane. […] This agent forms insoluble complexes with cholesterol leading to the segregation of cholesterol from its normal phospholipid binding sites. This action, in turn, leads to the formation of holes about 40-50 Å wide in the lipid bilayer. Once the plasma membrane is permeabilized, cytosolic components able to pass over digitonin-formed holes can be washed out, including the cytochrome C that was released from mitochondria to cytosol in the apoptotic cells ((Campos, 2006, Cytometry A 69(6):515-523)).
To determine if Bcl-xL inhibitors were inducing cell death through apoptosis, cytochrome C release was measured in Bcl-xL dependent Molt-4 cells following treatment Specifically, 1×10^6 cells were treated for 4 h (37° C., 5% CO2) with the test compounds in half-log dilutions starting at 3.0 μM and ending at 0.01 μM. Cells were then processed as described in Chen et al., 2011, Mol. Cancer Ther. 10:2340-2350 (the Bcl-2/Bcl-X(L)/Bcl-w inhibitor, navitoclax, enhances the activity of chemotherapeutic agents in vitro and in vivo.).

[3] = test system: permeabilized Molt-4 cells; test: JC-1 percent depolarization assay in digitonin permeabilized Molt-4 cells; format: cell-based; details: Homo sapiens
From the text: In addition to cytochrome c release, mitochondria undergoing apoptosis frequently lose their transmembrane mitochondrial membrane potential (Bouchier-Hayes et al., 2008, Methods 44(3): 222-228). JC-1 is a cationic carbocyanine dye that accumulates in mitochondria and fluoresces red when mitochondria are healthy and is lost when the mitochondrial membrane is compromised (percentage depolarization; Smiley et al., 1991, Proc. Natl. Acad. Sci. USA, 88: 3671-3675; Reers et al., 1991: Biochemistry, 30: 4480-4486). This loss in signal can be detected in permeabilized cells using a fluorimeter (excitation 545 nm and emission of 590 nm) and is therefore fully quantitative, enhancing both reproducibility and throughput. Specifically, digitonin permeabilized molt-4 cells (75,000/well) were treated with Bcl-xL inhibitors (1000 nM-0.00 nM) for up to 180 minutes at 32° C., with fluorescence determined every 10 minutes. At the maximal signal, the percentage depolarization can be determined for each time concentration of Bcl-xL inhibitors according to the formula:
% Depolarization=1−[(Sample−FCCP)/(DMSO−FCCP)]
DMSO and FCCP (10 μM) are used as negative and positive controls respectively (Ryan & Letai, 2013, Methods 61(2): 156-164). EC50 values were subsequently determined from the resulting concentration-response curves. Good alignment was observed when the ability of Bcl-xL inhibitors to induce cytochrome c release was compared to loss in JC-1 fluorescence in permeabilized Molt-4 cells.

[4] = in the presence of 1% HS, read-out: Bcl-xL Binding Ki (nM, 1% HS)
[5] = without HS, read-out: Bcl-xL Binding Ki

| EC50 [1] [nM] | Ki (Bcl-xL; [4]) [nM] | Ki (Bcl-xL; [5]) [nM] | EC50 [2] [nM] | EC50 [3] [nM] | Structure (SMILES) |
| --- | --- | --- | --- | --- | --- |
| 245 | 0.203 | < 0.001 | < 0.5 |  | Cc1c(-c2ccc(N3CCc4cccc(C(=O)Nc5nc6ccccc6s5)c4C3)nc2C(=O)O)cnn1CC12CC3(C)CC(C)(C1)CC(OCCN(CCNCCC(=O)O)CCS(=O)(=O)O)(C3)C2 [Example 1.38, 6-[8-(1,3-benzothiazol-2-ylcarbamoyl)-3,4-dihydroisoquinolin-2 (1H)-yl]-3-{1-[(3-{2-[{2-[(2-carboxyethyl)amino]ethyl}(2-sulfoethyl)amino]ethoxy}-5,7-dimethyltricyclo[3.3.1.1^3,7]dec-1-yl)methyl]-5-methyl-1H-pyrazol-4-yl}pyridine-2-carboxylic acid] |
| 1590 | 0.174 | 0.018 | < 0.5 |  | Cc1c(-c2ccc(N3CCc4cccc(C(=O)Nc5nc6ncccc6s5)c4C3)nc2C(=O)O)cnn1CC12CC3(C)CC(C)(C1)CC(OCCNCCCP(=O)(O)O)(C3)C2 [Example 1.39, 3-{1-[(3,5-dimethyl-7-{2-[(3-phosphonopropyl)amino]ethoxy}tricyclo[3.3.1.1^3,7]dec-1-yl)methyl]-5-methyl-1H-pyrazol-4-yl}-6-[8-([1,3]thiazolo[4,5-b]pyridin-2-ylcarbamoyl)-3,4-dihydroisoquinolin-2 (1H)-yl]pyridine-2-carboxylic acid] |
| 1260 | 0.282 | < 0.001 | < 0.5 |  | Cc1c(-c2ccc(N3CCc4cccc(C(=O)Nc5nc6ccccc6s5)c4C3)nc2C(=O)O)cnn1CC12CC3(C)CC(C)(C1)CC(OCCN(CCS(=O)(=O)O)C(=O)[C@@H](N)CC(=O)O)(C3)C2 [Example 1.44, 3-{1-[(3-{2-[L-alpha-aspartyl(2-sulfoethyl)amino]ethoxy}-5,7-dimethyltricyclo[3.3.1.1^3,7]dec-1-yl)methyl]-5-methyl-1H-pyrazol-4-yl}-6-[8-(1,3-benzothiazol-2-ylcarbamoyl)-3,4-dihydroisoquinolin-2 (1H)-yl]pyridine-2-carboxylic acid] |
| 19 | 0.134 | < 0.001 |  | 0.13 | Cc1c(-c2ccc(N3CCc4cccc(C(=O)Nc5nc6ccccc6s5)c4C3)nc2C(=O)O)cnn1CC12CC3(C)CC(C)(C1)CC(OCCNC(CO)CO)(C3)C2 [Example 1.45, 6-[8-(1,3-benzothiazol-2-ylcarbamoyl)-3,4-dihydroisoquinolin-2 (1H)-yl]-3-{1-[(3-{2-[(1,3-dihydroxypropan-2-yl)amino]ethoxy}-5,7-dimethyltricyclo[3.3.1.1^3,7]dec-1-yl)methyl]-5-methyl-1H-pyrazol-4-yl}pyridine-2-carboxylic acid] |
| 68 | 0.00615 | < 0.001 | < 0.5 |  | Cc1c(-c2ccc(N3CCc4c(OCCN)ccc(C(=O)Nc5nc6ccccc6s5)c4C3)nc2C(=O)O)cnn1CC12CC3(C)CC(C)(C1)CC(OCCN(C)CCS(=O)(=O)O)(C3)C2 [Example 1.46, 6-[5-(2-aminoethoxy)-8-(1,3-benzothiazol-2-ylcarbamoyl)-3,4-dihydroisoquinolin-2 (1H)-yl]-3-{1-[(3,5-dimethyl-7-{2-[methyl(2-sulfoethyl)amino]ethoxy}tricyclo[3.3.1.1^3,7]dec-1-yl)methyl]-5-methyl-1H-pyrazol-4-yl}pyridine-2-carboxylic acid] |
| 197 | 0.0294 | 0.006 | < 0.5 |  | Cc1c(-c2ccc(N3CCc4c(OCCNCCS(=O)(=O)O)ccc(C(=O)Nc5nc6ccccc6s5)c4C3)nc2C(=O)O)cnn1CC12CC3(C)CC(C)(C1)CC(OCCN(C)CCS(=O)(=O)O)(C3)C2 [Example 1.47, 6-[8-(1,3-benzothiazol-2-ylcarbamoyl)-5-{2-[(2-sulfoethyl)amino]ethoxy}-3,4-dihydroisoquinolin-2 (1H)-yl]-3-{1-[(3,5-dimethyl-7-{2-[methyl(2-sulfoethyl)amino]ethoxy}tricyclo[3.3.1.1^3,7]dec-1-yl)methyl]-5-methyl-1H-pyrazol-4-yl}pyridine-2-carboxylic acid] |
|  | 4.9 | < 0.01 |  | 0.14 | Cc1c(-c2ccc(-c3cnc4cccc(C(=O)Nc5nc6ccccc6s5)c4c3)nc2C(=O)O)cnn1CC12CC3(C)CC(C)(C1)CC(OCCNCCS(=O)(=O)O)(C3)C2 [Example 1.69, 6-[5-(1,3-benzothiazol-2-ylcarbamoyl)quinolin-3-yl]-3-{1-[(3,5-dimethyl-7-{2-[(2-sulfoethyl)amino]ethoxy}tricyclo[3.3.1.1^3,7]dec-1-yl)methyl]-5-methyl-1H-pyrazol-4-yl}pyridine-2-carboxylic acid] |
| 495 | 1.05 | < 0.01 |  | 0.26 | Cc1c(-c2ccc(N3CCc4cccc(C(=O)Nc5nc6ccccc6s5)c4C3)nc2C(=O)O)cnn1CC12CC3(C)CC(C)(C1)CC(OCCNC[C@@H](O)[C@@H](O)[C@H](O)CO)(C3)C2 [Example 1.76, 5-{[2-([3-[(4-{6-[8-(1,3-benzothiazol-2-ylcarbamoyl)-3,4-dihydroisoquinolin-2 (1H)-yl]-2-carboxypyridin-3-yl}-5-methyl-1H-pyrazol-1-yl)methyl]-5,7-dimethyltricyclo[3.3.1.1^3,7]dec-1-yl}oxy)ethyl]amino}-5-deoxy-D-arabinitol] |
| 837 | 0.166 | < 0.01 |  | 0.099 | Cc1c(-c2ccc(N3CCc4cccc(C(=O)Nc5nc6ccccc6s5)c4C3)nc2C(=O)O)cnn1CC12CC3(C)CC(C)(C1)CC(OCCNCC[C@@H](O)[C@H](O)[C@H](O)CO)(C3)C2 [Example 1.77, 1-{[2-({3-[(4-{6-[8-(1,3-benzothiazol-2-ylcarbamoyl)-3,4-dihydroisoquinolin-2 (1H)-yl]-2-carboxypyridin-3-yl}-5-methyl-1H-pyrazol-1-yl)methyl]-5,7-dimethyltricyclo[3.3.1.1^3,7]dec-1-yl}oxy)ethyl]amino}-1,2-dideoxy-D-arabino-hexitol] |
| 104 | 3.1 | < 0.01 |  | 0.14 | Cc1c(-c2ccc(N3CCc4cccc(C(=O)Nc5nc6ccccc6s5)c4C3)nc2C(=O)O)cnn1CC12CC3(C)CC(C)(C1)CC(OCCNCC(CO)CO)(C3)C2 [Example 1.79, 6-[8-(1,3-benzothiazol-2-ylcarbamoyl)-3,4-dihydroisoquinolin-2 (1H)-yl]-3-(1-{[3-(2-{[3-hydroxy-2-(hydroxymethyl)propyl]amino}ethoxy)-5,7-dimethyltricyclo[3.3.1.1^3,7]dec-1-yl]methyl}-5-methyl-1H-pyrazol-4-yl)pyridine-2-carboxylic acid] |
| 78 | 0.4 | 0.016 |  | 0.07 | Cc1c(-c2ccc(N3CCc4cccc(C(=O)Nc5nc6ccccc6s5)c4C3)nc2C(=O)O)cnn1CC12CC3(C)CC(C)(C1)CC(OCCNCC[C@H](O)CO)(C3)C2 [Example 1.85] |
